Experimental data reported in patent US20170166979A1, “PERSONALIZED TREATMENT OF CANCER USING FGFR INHIBITORS” (priority 2014, published 2017).
“Also recorded” adds a separate entry of the source.

Assays:
[1] = system: stage IV squamous cell lung cancer with FGFR1 amplification and MYC score of 3; experiment: Patient treated with BGJ398 in first-in-humans trial (CT, RECIST 1.1); type: in vivo, human; settings: 100 mg
Excerpt: FIG. 11. […] The sample was scored (degrees 0-3) by FGFR1 dual-color FISH (top, normalized copy-number ratio) as well as MYC IHC (bottom, nuclear staining intensity).
FIG. 13. Fused scans of positron emission tomography (PET) and computer tomography (CT) before (top left, baseline) and after the beginning of BGJ389 therapy (top right, 4 weeks). […] Target lesions for evaluation of tumor response are highlighted by red arrows. IHC, immunohistochemistry.
We identified a person with a 70-packper-year smoking history. […] The patient agreed to treatment with BGJ398, a highly specific FGFR1 inhibitor, which was being evaluated in a first-in-humans trial at our center. After cardiac assessment and baseline thoracic computed tomography (CT), treatment with 100 mg BGJ398 was started.

[2] = system: NIH3T3-FGFR1β-MYC cells; experiment: Xenograft mouse model, tumor volume; type: in vivo, nude mice; settings: 15 mg/kg, q.d., tumors coexpressing FGFR1 and MYC; P<0.001
Method: (§1) FIG. 4. Nude mice, engrafted with retrovirally transduced NIH3T3 cells, received BGJ398 (15 mg/kg, q.d., lower curve) or 5% glucose (upper curve), respectively, upon formation of palpable tumors. Volumes of tumors formed by NIH3T3-FGFR1f3 cells (top) and NIH3T3-FGFR1β-MYC cells (bottom) were assessed every second day and compared by the t test. Error bars display SD of three independent experiments.
(§2) All animal procedures were approved by the local animal protection committee and the local authorities. Transduced NIH3T3 and tumor cells were resuspended in RPMI or DMEM medium and injected (5×10^6 cells per tumor) subcutaneously into the flanks of 8- to 15-week-old male nude mice [Rj:NMRI-nu (nu/nu), Janvier Europe] under 2.5% isoflurane anesthesia.
(§3) To assess the effect of FGFR1 inhibitors in vivo, NVP-BGJ 398 (Novartis) was dissolved in a vehicle solution (33% PEG300, 5% glucose) for xenograft application. Tumor size was monitored every second day by measurement of perpendicular diameters by an external caliper and calculated by use of the modified ellipsoid formula [V=½ (Length×Width 2)]. Oral therapy was started when tumors reached a volume of 100 mm 3. Mice received daily either
(§4) BGJ398 (15 mg/kg) or vehicle solution. After 14 (NIH3T3 FGFR1(3 +MYC), 16 (NIH3T3 EML4-ALK, KRAS G12V), or 25 (NIH3T3 e.V., FGFR1α/β) days of therapy, respectively, mice were sacrificed by intraperitoneal injection of ketamine/xylazine (300/60 mg/kg).

[3] = system: NIH3T3 cells expressing either of the mesenchymal FGFR1 splice variants; experiment: Xenograft mouse model, tumor volume; type: in vivo, nude mice; settings: 15 mg/kg, q.d.
Method: as §1, §2, §3, §4

[4] = system: FGFR-dependent cell lines H1581 and DMS114; experiment: Immunoblotting of MYC and cyclin D1 expression upon FGFR inhibition; type: cell-based; settings: 1 μmol/L, within 24 hours
Method: (§5) FIG. 6. FGFR1-amplified H1581, DMS114, and HCC95 cells as well as HCC15 (NRAS mut) controls were treated with PD173074 (1 μmol/L, 24 hours). Expression levels of MYC, cyclin D1, and actin as well as ERK phosphorylation were monitored by immunoblotting. Con.: positive control NIH3T3-FGFR1β cells.

[5] = system: FGFR1-amplified HCC95 and H520 cells and NRAS-mutant HCC15 cells; experiment: as above; type: cell-based; settings: 1 μmol/L, 24 hours
Method: as §5

[6] = system: FGFR-dependent cell lines; experiment: Mitochondrial apoptosis mediators upon FGFR inhibition; type: cell-based; settings: 1 μmol/L, after 72 hours
[7] = system: FGFR1-MYC cotransduced NIH3T3 cells; experiment: Induction of apoptosis (Annexin-V/PI, flow cytometry); type: cell-based; settings: 1 μmol/L, 72-hour FGFR inhibition
Excerpt: (§6) FIG. 3. Induction of apoptosis (Annexin-V/PI, flow cytometry) in NIH3T3 cells, (co-) transduced with FGFR1β+/−MYC, by 72-hour FGFR inhibition (PD173074, 1 μmol/L). FGFR-dependent H1581 cells (PD173074, 1 μmol/L) as well as ALK-dependent NIH3T3-EML4-ALK
(§7) cells (TAE684, 1 μmol/L) were used as positive controls.

[8] = system: NIH3T3 cells expressing FGFR1 alone; experiment: as above; type: cell-based; settings: 1 μmol/L, 72-hour FGFR inhibition
Excerpt: as §6, §7

[9] = system: FGFR-dependent H1581 cells; experiment: as above; type: cell-based; settings: 1 μmol/L, 72-hour
Excerpt: as §6
cells (TAE684, 1 μmol/L) were used as positive controls. Resistant HCC15 and NIH3T3-e.V. cells served as negative controls. *, Significant induction of apoptosis.

[10] = system: FGFR-dependent cancer cell lines (H1581, DMS114, and HCC1599); experiment: FGFR dependency of cancer cell lines (cellular ATP content after 96 hours); type: cell-based; settings: FGFR-dependent group: H1581, DMS114, HCC1599
Method: (§8) FIG. 7. Protein expression of MYC was silenced by stable lentiviral transduction of FGFR dependent H1581 cells as well as HCC15, H2882, and HCC95 controls. Knockdown efficiency was validated by immunoblotting for H1581, H2882, and HCC15 cells (top). FGFR dependency was determined by measuring cellular ATP content after 96 hours (bottom).
(§9) FIG. 9. Segregation of FGFR1 amplification with RNA expression levels of MYC Cancer cell lines were divided into an FGFR-dependent (H1581, DMS114, and HCC1599) GI 50<500 nmol/L, PD173074) versus resistant group (A427, H520, H1703, HCC15, H358, HCC95, H187, SW1271, H526, and DMS153 cells). Expression levels were compared by the Student t test. wt, wild-type.

[11] = system: resistant group (A427, H520, H1703, HCC15, H358, HCC95, H187, SW1271, H526, and DMS153 cells); experiment: as above; type: cell-based
Method: as §8, §9

In the case of CCN1CCN(c2ccc(Nc3cc(N(C)C(=O)Nc4c(Cl)c(OC)cc(OC)c4Cl)ncn3)cc2)CC1 [BGJ398], the “Duration of therapy until progressive disease (kidney, RECIST1.1)” value [1] is reported as 10 months, the Symptoms [1] is reported as “improvement of symptoms” and the “Response according to RECIST 1.1 criteria” value ([1]; CT scans after 4 and 8 weeks) is reported as “partial response (PR)”. For the same compound, the “Tumor response on CT” value ([1]; CT scans after 4 and 8 weeks) was “tumor regression; also recorded: regression without cavitation of the tumor”, the Tumor regression [2] was “led to regressions” and the Tumor growth ([3]; oral, nude mice) was “repressed tumor growth”. The Tumor shrinkage ([3]; tumors expressing FGFR1 alone) was “did not induce tumor shrinkage”.
With CCN(CC)CCCCNc1ncc2cc(-c3cc(OC)cc(OC)c3)c(NC(=O)NC(C)(C)C)nc2n1 [PD173074] the “Levels of MYC” value [4] was “decreased”, the “Levels of cyclin D1” value [4] was “decreased” and the “Expression levels (MYC, cyclin D1)” value [5] was “remained relatively stable”. The “Cytochrome C release” value [6] was “occurred robustly”, the “Loss of the mitochondrial membrane potential” value [6] was “occurred robustly” and the Induction of apoptosis [7] was “induced apoptosis”. The Induction of apoptosis [8] was “but not in cells expressing FGFR1 alone”, the Induction of apoptosis [9] was “induced apoptosis” and the GI50 [10] was < 0.5 µM. The FGFR dependency group [11] was “resistant”.
